From patent publication US9351963B2, “Defensin-like molecules as novel antimicrobial agents” (UNIVERSITY OF MARYLAND, BALTIMORE, priority 2010, dated 2016)

How the values were obtained:
S. aureus ATCC 29213 = assay: Murine peritoneal sepsis model; type: in vivo, C57BL/6J mice; conditions: mouse, in vivo
Procedure: Adult C57BL/6J mice (˜18 grams, 8-10 weeks old) were used for all experiments. Mice were obtained from the Jackson Laboratory (Bar Harbour, Me., USA) and housed in the IHV SPC animal core facility. Mice were fed standard chow (Harlan Laboratories) and water ad libitum. To assess the protective potency of defensin mimetic BAS00127538, groups of 5 mice were inoculated intraperitoneally ˜10^7 CFU/mL of S. aureus ATCC 29213 in 500 μL saline solution/25% DMSO plus 4.5% (w/v) porcine gastric mucin (Sigma Chemical Co., St Louis, Mo.). Infected animals (n=5) were subsequently treated by intra-peritoneal injection 1 and 4 hours post-infection with 2.5 mg/kg of compound in 100 μL sterile saline solution plus 25% DMSO (V/V), vancomycin/lysostaphin (5 mg/kg, saline solution/25% DMSO) or vehicle (saline solution/25% DMSO) as positive and negative controls respectively. Animals were closely observed during a period of 24 hours and mice that show signs of severe sepsis were humanely euthanized. Blood samples were collected by retro-orbital puncture at the indicated intervals post-infection using lithium-heparin polystyrene tubes to prevent coagulation. Spleens were harvested aseptically, weighed and homogenized in 500 μl of sterile saline solution using an IKA T10 basic disperser (IKA, Wilmington N.C.). Whole blood samples and spleen homogenates were serially diluted and plated onto LB agar plates. Bacterial counts were determined following 24 h incubation at 37° C. and expressed as CFU per milliliter for blood and CFU per gram for spleen.
Next, a murine model for sepsis was established to evaluate the efficacy of the lead defensin mimetics as antibiotic agents in vivo. […] Mice (n=5) were inoculated intraperitoneally with S. aureus 29213 and treated 1 h and 4 h post-infection with compound BAS00127538 at 2.5 mg/kg intraperitoneally Animals were monitored for survival and blood and spleen samples were collected. Bacterial counts were determined and compared to control treatment with vancomycin/lysostaphin as measures of efficacy (FIG. 6).

[1] = Surface Plasmon Resonance binding to immobilized 3-Lipid II (BIAcore); conditions: SPR, 10 μM, room temperature, 40 RUs 3-Lipid II
Procedure: Short-chain water-soluble Lipid II containing a lipid tail of three isoprene units was generated and purified essentially as described (Breukink, E., van Heusden, H. E., Vollmerhaus, P. J., Swiezewska, E., Brunner, L., Walker, S., Heck, A. J., and de Kruijff, B. (2003) J Biol Chem 278, 19898-19903). Typically, M. flavus vesicles (120 μmol lipid-Pi) were incubated together with 500 μmol UDP-GlcNAc, 500 μmol UDP-MurNAC-pentapeptide and 400 μmol farnesyl phosphate (3-P) in 100 mM Tris-HCl pH 8.0, 5 mM MgCl2. The incubation lasted two hours at room temperature for 3-P. The synthesis of 3-Lipid II was followed using RP-8 reversed phase TLC (Merck) developed in 75% methanol. For purification, the membranes were removed by centrifugation at 40,000×g and the supernatant was collected and loaded on a C18 HPLC column and eluted with a linear gradient from 50 mM ammonium bicarbonate to 100% methanol in 30 minutes. Farnesyl-Lipid II (3-Lipid II) eluted at approximately 60% methanol. Its identity was confirmed by mass spectroscopy.
Surface Plasmon Resonance binding experiments were carried out on a BIAcore T100 system (BIAcore Inc., Piscataway, N.Y.) at 25° C. The assay buffer was 10 mM HEPES, 150 mM NaCl, 0.05% surfactant P20, pH 7.4 (±3 mM EDTA) supplemented with 10% DMSO. […] For initial determination of binding, defensin mimetics were introduced into the flow-cells (30 μl/min) in the running buffer at 10 μM. Resonance signals were corrected for nonspecific binding by subtracting the background of the control flow-cell. After each analysis, the sensor chip surfaces were regenerated with 50 mM NaOH for 30 s at a flow rate 100 μl/min, and equilibrated with the buffer prior to next injection. For binding kinetics studies, binding isotherms were analyzed with manufacturer-supplied software for BIAcore T100.

[2] = tested on: Staphylococcus aureus ATCC 29213; assay: Antagonization assay of antibacterial activity against S. aureus; type: cell-based; conditions: for Effect of pre-incubation with D-Ala (Diacetyl-Lys-D-Ala-D-Ala) on killing of S. aureus / Effect of pre-incubation with D-Lac (diacetyl-Lys-D-ala-D-Lac) on killing of S. aureus: 1:200 molar ratio, 30 min
Procedure: Antagonization of the antibacterial activity of defensins against Staphylococcus aureus ATCC 29213 was carried out in a 96-well turbidimetric assay essentially as described previously (Erickson et al.). Defensins (50 μM final concentration) were pre-incubated with the following compounds for 30 min at RT: 1) 3-Lipid II at 1:1, 1:2.5 and 1:5 defensin:Lipid II molar ratios; or; 2) DiAcetyl-Lys-D-Alanine-D-Alanine and DiAcetyl-Lys-D-Alanine-D-Lac at 1:200 molar ratios. Additionally, vancomycin (500 μM) was pre-incubated separately with D-Ala and D-Lac at a 1:200 molar ratio. Following incubation, solutions were diluted two-fold in ten steps and bacteria were added. Bacterial cells were exposed to HNP1 or vancomycin for 30 min and to HD-5 for 60 min in all studies. Defensin activity was neutralized by the addition of Mueller Hinton broth. Bacterial growth was monitored for 12 hours and data were analyzed as described (Erickson et al.).
Next, the inventors examined whether the antibacterial activity of HNP-1 could be antagonized by soluble Lipid II as a measure for functional interaction. HNP-1 (50 μM) was pre-incubated with 3-Lipid II at varying molar ratios and killing of S. aureus was determined using the vCC protocol (Erickson et al.) (FIG. 3). […] Survival curves of S. aureus ATCC 29213 exposed to HNP1 (at concentrations varying two-fold from 50 to 1.25 μM). Defensin peptide was pre-incubated with 3-Lipid II at varying molar ratios for 30 min prior to addition of bacteria. Bacteria were subsequently exposed to HNP-1 for 30 min. Each curve is the mean of two separate experiments (±S.D.). Points scored as zero survival could not be plotted.
The D-Ala-D-Ala motif in the pentapeptide is the predominant binding site for vancomycin, a drug of “last resort” for many multi-drug resistant Gram-positive infections. To examine if the interaction of HNP-1 with Lipid II overlaps with the vancomycin binding site, antagonization assays were performed. Diacetyl-Lys-D-Ala-D-Ala (D-Ala) was used as […] and the non-specific peptide diacetyl-Lys-D-ala-D-Lac (D-Lac) as a control. Both vancomycin and HNP-1 were pre-incubated at a 1:200 molar ratio with both compounds for 30 min, similar to experiments with soluble Lipid II (FIG. 3). Subsequently, the inventors determined any antagonizing effects on the killing of S. aureus (FIG. 4). […] In particular, survival curves of S. aureus ATCC 29213 exposed to HNP1 (upper panel) at concentrations varying two-fold from 50 to 1.25 μM or to vancomycin (lower panel) at concentrations varying two-fold from 2 to 0.0125 μM. HNP-1 and vancomycin were pre-incubated with D-ala or D-lac at a 1:200 molar ratio for 30 min prior to addition of bacteria. Bacteria were subsequently exposed to HNP-1 or vancomycin for 30 min. Each curve is the mean of two separate experiments (±S.D.). Points scored as zero survival could not be plotted.

[3] = tested on: Staphylococcus aureus ATCC 29213; conditions: previously reported (Wei et al., J Biol Chem 285); cited from earlier work
[4] = tested on: Escherichia coli ATCC 25922; assay: 96-well turbidimetric antibacterial killing assay, E. coli; type: cell-based; conditions: E. coli ATCC 25922, 120 min exposure
Procedure: The antibacterial activity of defensin mimetics against Staphylococcus aureus ATCC 29213 and Escherichia coli 25922 was carried out in a 96-well turbidimetric assay essentially as described (Ericksen, B., Wu, Z., Lu, W., and Lehrer, R. I. (2005) Antimicrob Agents Chemother 49, 269-275) with the following modifications: compounds were exposed for 30 min to […] prior to addition of […] in 10 mM phosphate buffer containing 5% DMSO. Bacterial growth was monitored for 12 hours and data were analyzed as described (Ericksen, et al). Determination of MICs was performed by Micromyx, LLC (Kalamazoo, Mich.) according to CLSI standards (CLSI. (2009) Methods for Dilution Antimicrobial Susceptibility Tests for Bacteria That Grow Aerobically; Approved Standard—Eighth Edition.)
The inventors have previously reported on the antibacterial activity of HNP1 and all of its structurally uncompromised single alanine mutants against S. aureus (Wei, G., Pazgier, M., de Leeuw, E., Rajabi, M., Li, J., Zou, G., Jung, G., Yuan, W., Lu, W. Y., Lehrer, R. I., and Lu, W. J Biol Chem 285, 16275-16285). […] If these residues are indeed important for Lipid II binding, one would expect that replacement by alanine will not affect killing of Gram-negative bacteria. […] In particular, FIG. 12 depicts killing of E. coli by HNP-1 Lipid II single alanine mutants. Survival curves of E. coli ATCC 25922 exposed to HNP-1 or HNP-1 single alanine mutants at concentrations varying two-fold from […]. Bacteria were exposed to defensin peptides for 120 min. Each curve is the mean of two separate experiments (±S.D.). Points scored as zero survival could not be plotted.

| Compound | Efficacy in vivo in a murine model for sepsis (S. aureus ATCC 29213) | Binding of HNP-1 single alanine mutants to Lipid II compared to wild-type HNP-1 [1] | also measured |
| --- | --- | --- | --- |
| Oc1ccccc1Oc1c(F)c(F)c(-c2c(F)c(F)c(Oc3ccccc3O)c(F)c2F)c(F)c1F [Compound 1611-0203, 2-{2,3,5,6-tetrafluoro-4-[2,3,5,6-tetrafluoro-4-(2-hydroxyphenoxy)phenyl]phenoxy}phenol] | proven effective | – | – |
| Gly23: HNP-1 single alanine mutant, Gly23 replaced by alanine | – | did not affect binding | – |
| CN[C@H](CC(C)C)C(=O)N[C@H]1C(=O)N[C@@H](CC(N)=O)C(=O)N[C@H]2C(=O)N[C@H]3C(=O)N[C@H](C(=O)N[C@H](C(=O)O)c4cc(O)cc(O)c4-c4cc3ccc4O)[C@H](O)c3ccc(c(Cl)c3)Oc3cc2cc(c3O[C@@H]2O[C@H](CO)[C@@H](O)[C@H](O)[C@H]2O[C@H]2C[C@](C)(N)[C@H](O)[C@H](C)O2)Oc2ccc(cc2Cl)[C@H]1O [Vancomycin, vancomycin] | – | – | Effect of pre-incubation with D-Ala (Diacetyl-Lys-D-Ala-D-Ala) on killing of S. aureus [2]: specifically inhibited the killing; Effect of pre-incubation with D-Lac (diacetyl-Lys-D-ala-D-Lac) on killing of S. aureus [2]: not altered; Killing of S. aureus ([2]; without antagonist, 30 min exposure): very effectively |
| Arg15: HNP-1 single alanine mutant, Arg15 replaced by alanine | – | significant reduction of binding | Killing of S. aureus by HNP-1 single alanine mutants [3]: severely compromised; Bactericidal activity against E. coli relative to wild-type HNP-1 [4]: exception |
| Ile10: HNP-1 single alanine mutant, Ile10 replaced by alanine | – | did not affect binding | – |
| CC[n+]1c(/C=C2C=C(/C=C/N(C)c3ccccc3)CC(C)(C)C/2)sc2ccccc21 [Compound 4090-1978, 2-{[(1E)-5,5-dimethyl-3-[(E)-2-[methyl(phenyl)amino]ethenyl]cyclohex-2-en-1-ylidene]methyl}-3-ethyl-1,3-benzothiazol-3-ium] | proven effective | – | – |
| HNP-1: α-defensin Human Neutrophil Peptide 1, chemically synthesized, wild-type | – | – | Bactericidal activity after pre-incubation with 3-Lipid II ([2]; 1:1 molar ratio, 30 min pre-incubation, S. aureus): reduced by one order of magnitude; Effect of pre-incubation with D-Ala (Diacetyl-Lys-D-Ala-D-Ala) on killing of S. aureus [2]: not competitively inhibited; Effect of pre-incubation with D-Lac (diacetyl-Lys-D-ala-D-Lac) on killing of S. aureus [2]: not competitively inhibited |
| Arg5: HNP-1 single alanine mutant, Arg5 replaced by alanine | – | did not affect binding | – |
| CCCCC[n+]1c(/C=C2\Sc3cc(NC(C)=O)ccc3N2CC)ccc2ccccc21 [Compound 4890-0291, N-[(2Z)-3-ethyl-2-[(1-pentylquinolin-1-ium-2-yl)methylidene]-1,3-benzothiazol-6-yl]acetamide] | proven effective | – | – |
| CC[n+]1c(/C=C2C=C(/C=C/C(C)=C\N(C)C)CC(C)(C)C/2)sc2ccccc21 [Compound 4090-1979, 2-{[(1E)-3-[(1E,3Z)-4-(dimethylamino)-3-methylbuta-1,3-dien-1-yl]-5,5-dimethylcyclohex-2-en-1-ylidene]methyl}-3-ethyl-1,3-benzothiazol-3-ium] | proven effective | – | – |
| HNP-1 R24A mutant: HNP-1 single alanine mutant, Arg24 replaced by alanine | – | maintained significant binding | – |
| CN(C)c1ccc(/C=C/c2cc(C(C)(C)C)[o+]c(C(C)(C)C)c2)cc1 [Compound 1493-0289, 2,6-di-tert-butyl-4-[(E)-2-[4-(dimethylamino)phenyl]ethenyl]-1$1^4-pyran-1-ylium] | proven effective | – | – |
| c1ccc(-c2nc(N(c3ccccc3)c3ccccc3)s[n+]2-c2ccccc2)cc1 [Compound 1492-0330, 5-(diphenylamino)-2,3-diphenyl-1,2$1^5,4-thiadiazol-2-ylium] | proven effective | – | – |
